The record followed here is US20100331297A1, “MODULATION OF PROTEIN TRAFFICKING” (FOLDRX PHARMACEUTICALS, INC., priority 2007, published 2010).

pEC50: −log10 of the molar value.

The target of this assay is ΔF508 CFTR (Homo sapiens, UniProt P13569, DEL508-508). The experiment in a line: Corrector activity, YFP halide (iodide) quenching assay in FRT cells expressing ΔF508 CFTR. Details: expressed in transfected cells; host or cells: Fischer rat thyroid (FRT) cells. In kind it is cell-based. To be noted: FRT cells ΔF508 CFTR/YFP, 24 hours with compound at 37° C., forskolin and genistein; read-out: Corrector EC50. On the procedure: Fisher rat thyroid (FRT) cells stably expressing ΔF508 CFTR and a halide-sensitive variant of yellow fluorescent protein (YFP) were seeded into microtiter plates and allowed to grow for 24 hours at 37° C. and 5% CO2. See Pedemonte et al., J. Clin. Invest. […] Compounds in dimethylsulfoxide (DMSO) solution were pre-diluted into cell culture medium, the medium was removed from cells, and then fresh medium containing the compounds was applied. The cells were incubated for a further 24 hours at 37° C. and 5% CO2.
Chain of ΔF508 CFTR (P13569 with tags, fused parts or gaps DEL508-508): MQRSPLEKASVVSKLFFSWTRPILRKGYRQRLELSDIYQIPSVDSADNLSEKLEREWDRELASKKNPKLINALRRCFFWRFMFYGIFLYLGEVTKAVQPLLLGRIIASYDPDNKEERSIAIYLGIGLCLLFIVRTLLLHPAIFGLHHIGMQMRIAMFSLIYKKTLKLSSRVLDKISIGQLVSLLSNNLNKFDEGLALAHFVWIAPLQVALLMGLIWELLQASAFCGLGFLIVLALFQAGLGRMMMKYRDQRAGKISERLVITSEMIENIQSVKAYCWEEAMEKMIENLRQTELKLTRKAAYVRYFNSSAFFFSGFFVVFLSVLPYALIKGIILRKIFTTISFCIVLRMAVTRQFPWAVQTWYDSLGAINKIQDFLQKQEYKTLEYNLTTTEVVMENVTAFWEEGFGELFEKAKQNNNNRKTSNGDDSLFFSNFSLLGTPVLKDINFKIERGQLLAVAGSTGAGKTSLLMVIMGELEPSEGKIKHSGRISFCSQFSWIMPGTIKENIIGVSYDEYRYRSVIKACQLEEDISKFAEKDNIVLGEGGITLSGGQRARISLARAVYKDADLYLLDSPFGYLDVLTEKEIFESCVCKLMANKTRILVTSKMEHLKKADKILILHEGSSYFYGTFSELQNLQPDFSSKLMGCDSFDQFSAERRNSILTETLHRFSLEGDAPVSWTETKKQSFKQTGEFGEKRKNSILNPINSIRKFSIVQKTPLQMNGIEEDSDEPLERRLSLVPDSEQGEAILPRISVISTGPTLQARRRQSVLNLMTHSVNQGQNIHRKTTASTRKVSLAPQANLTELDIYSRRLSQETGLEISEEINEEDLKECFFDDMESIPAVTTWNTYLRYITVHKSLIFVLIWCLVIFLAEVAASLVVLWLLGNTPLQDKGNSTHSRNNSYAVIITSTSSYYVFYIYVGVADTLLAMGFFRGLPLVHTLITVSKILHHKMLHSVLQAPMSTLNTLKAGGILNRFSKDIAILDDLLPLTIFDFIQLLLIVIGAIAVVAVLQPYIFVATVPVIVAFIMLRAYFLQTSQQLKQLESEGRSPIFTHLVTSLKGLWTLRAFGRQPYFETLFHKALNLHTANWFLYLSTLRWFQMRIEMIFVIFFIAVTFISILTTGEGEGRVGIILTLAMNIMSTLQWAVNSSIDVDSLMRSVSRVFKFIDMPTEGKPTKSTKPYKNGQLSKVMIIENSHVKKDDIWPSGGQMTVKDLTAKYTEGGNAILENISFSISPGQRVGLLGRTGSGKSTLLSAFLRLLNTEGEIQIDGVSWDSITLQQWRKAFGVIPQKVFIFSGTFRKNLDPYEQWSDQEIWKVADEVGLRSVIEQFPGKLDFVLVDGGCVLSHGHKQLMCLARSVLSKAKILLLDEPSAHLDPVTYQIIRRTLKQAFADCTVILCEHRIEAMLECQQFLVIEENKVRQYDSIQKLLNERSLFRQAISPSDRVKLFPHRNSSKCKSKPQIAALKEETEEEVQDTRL
Activity of CFTR was assayed by removing the medium, washing the cell monolayer with phosphate-buffered saline solution (PBS), and then applying PBS containing forskolin and genistein. After 30 min incubation at 37° C., the plates were placed in a fluorescence plate reader equipped with a reagent injector.
Corrector activity was calculated as follows. Normalized endpoint fluorescence was calculated by dividing the endpoint fluorescence after iodide injection by the initial fluorescence reading and multiplication by 100. Corrector EC50 values were calculated from the activity vs. concentration data using a 4-parameter log fit. The bottom of the curve was constrained to zero activity (DMSO control) while the slope, EC50, and top of the curve were fitted to the data. The EC50 was determined as the concentration that corresponds to the inflection point of the fitted curve.
As a reminder, the pEC50 is the EC50 on a negative log10 scale, so that one unit is a factor of ten. Consider `CC(C)C(=O)Nc1ncnc2c1c(-c1ccc(Cl)cc1)cn2C(C)(C)C` [compound 337], for which the pEC50 was over 5.70.
Then `CC(C)(C)n1nc(Oc2cccc(Cl)c2)c2c(NC(=O)C3CCCC3)ncnc21` [compound 338], with 5.00 to 5.30; and `CCC(=O)Nc1ncnc2c1c(Oc1cccc(Cl)c1)nn2C(C)(C)C` [compound 339], with 5.00 to 5.30.
With `CCn1nc([S+]([O-])c2cccc(C(F)(F)F)c2)c2c(N)ncnc21` (centres unmarked) [compound 340], the pEC50 is under 4.82.
For the compound `CCNC(=O)N1CC(n2nc(Sc3ccccc3)c3c(N)ncnc32)C1` [compound 348], the negative logarithm of the EC50 (pEC50) is under 4.82.
Then `CC(C)(C)n1cc(-c2cccc(Cl)c2)c2c(N)ncnc21` [compound 354], with under 4.82; and `CC(C)(C)OC(=O)N1CC(n2nc(Oc3cccc(Cl)c3)c3c(N)ncnc32)C1` [compound 357], with under 4.82.
Then `Nc1ncnc2c1c(Oc1cccc(Cl)c1)nn2C1CCOC1` (centres unmarked) [compound 358], with under 4.82; and `Nc1ncnc2c1c(Oc1ccccc1)nn2C1CCOC1` (centres unmarked) [compound 359], with under 4.82; and `CC(C)N1CC(n2nc(Sc3cccc(Cl)c3)c3c(N)ncnc32)C1` [compound 360], with under 4.82.
Then `CC1CCC(n2nc(-c3ccc(Cl)cc3)c3c(N)ncnc32)CC1` (centres unmarked) [compound 361], with under 4.82.
As to `CC(C)(C)OC(=O)N1CCC(n2nc(Oc3ccccc3)c3c(N)ncnc32)CC1` [compound 362], the pEC50 was under 4.82.
Then `CN1CCC(C(=O)Nc2ncnc3c2c(-c2ccc(Cl)cc2)nn3C(C)(C)C)C1` (centres unmarked) [compound 363], with under 4.82.
With `CCn1c(C)c(-c2ccc(Cl)cc2)c2c(NC(=O)C(C)C)ncnc21` [compound 364], the pEC50 is over 5.70.
As to `CCn1c(C)c(-c2ccc(Cl)cc2)c2c(NC(=O)C3CCCC3)ncnc21` [compound 365], the pEC50 is 5.30 to 5.70.
With `CC(C)C(=O)Nc1ncnc2c1c(-c1ccc(Cl)cc1)cn2C(C)(C)C` [compound 366], the pEC50 was under 4.82.
To `CC(C)(C)n1cc(-c2cccc(Cl)c2)c2c(NC(=O)C3CCCC3)ncnc21` [compound 367] belongs 5.00 to 5.30.
Then `CCC(=O)Nc1ncnc2c1c(-c1cccc(Cl)c1)cn2C(C)(C)C` [compound 368], with 5.00 to 5.30; and `CC(C)C(=O)Nc1ncnc2c1c(Oc1cccc(Cl)c1)nn2C(C)(C)C` [compound 369], with 5.30 to 5.70; and `CC(C)(C)n1nc(Oc2nccc3ccccc23)c2c(N)ncnc21` [compound 370, 1-tert-Butyl-3-(isoquinolin-1-yloxy)-1H-pyrazolo[3,4-d]pyrimidin-4-ylamine], with under 4.82.
With `CCC(=O)Nc1ncnc2c1c(-c1ccc(Cl)cc1)cn2C(C)(C)C` [compound 371], the pEC50 was over 5.70.
On to `CC(=O)Nc1ncnc2c1c(-c1ccc(Cl)cc1)cn2C(C)(C)C` [compound 372], for which the pEC50 is 5.30 to 5.70.
To `CC(C)(C)n1cc(-c2ccc(Cl)cc2)c2c(NC(=O)C3CCCO3)ncnc21` (centres unmarked) [compound 373] belongs 5.00 to 5.30; to `CC(C)(C)n1cc(-c2ccc(Cl)cc2)c2c(NC(=O)C3CCOC3)ncnc21` (centres unmarked) [compound 374], over 5.70.
Then `CN1CCC(C(=O)Nc2ncnc3c2c(-c2ccc(Cl)cc2)cn3C(C)(C)C)C1` (centres unmarked) [compound 375], with over 5.70; and `CC(C)(C)n1cc(-c2ccc(Cl)cc2)c2c(NC(=O)C3CCCO3)ncnc21` (centres unmarked) [compound 376], with 5.30 to 5.70; and `CC(C)(C)C(=O)Nc1ncnc2c1c(Oc1cccc(Cl)c1)nn2C(C)(C)C` [compound 377], with under 4.82.
Then `CN1CCC(n2nc(-c3ccc(Cl)cc3)c3c(N)ncnc32)CC1` [compound 378], with under 4.82; and `CN1CC[C@H](n2nc(-c3ccc(Cl)cc3)c3c(N)ncnc32)C1` [compound 379], with under 4.82; and `CC(=O)N1CC(n2nc(Oc3cccc(Cl)c3)c3c(N)ncnc32)C1` [compound 380], with under 4.82.
`CCNC(=O)N1CC(n2nc(Oc3cccc(Cl)c3)c3c(N)ncnc32)C1` [compound 381]: the pEC50 is under 4.82.
To `CN1CC(n2nc(Sc3cccc(Cl)c3)c3c(N)ncnc32)C1` [compound 382] belongs under 4.82.
Then `CN1CC(n2nc(Sc3ccccc3)c3c(N)ncnc32)C1` [compound 383], with under 4.82; and `CC(C)N1CC(n2nc(Sc3ccccc3)c3c(N)ncnc32)C1` [compound 384], with under 4.82.
Then `CC(C)(C)OC(=O)N1CC(n2nc([S+]([O-])c3ccccc3)c3c(N)ncnc32)C1` (centres unmarked) [compound 385], with under 4.82; and `CCOC(=O)N1CCC(n2nc(Oc3ccccc3)c3c(N)ncnc32)CC1` [compound 386], with under 4.82; and `CN1CC(n2nc(Cc3cccc4ccccc34)c3c(N)ncnc32)C1` [compound 387], with under 4.82.
As to `CC(C)(C)C(=O)Nc1ncnc2c1cnn2C(C)(C)C` [compound 389], the pEC50 is under 4.82.
Regarding `CC(C)C(=O)Nc1ncnc2c1cnn2C(C)(C)C` [compound 390], the pEC50 was under 4.82.
Then `CC(C)(C)n1cc(-c2ccc(Cl)cc2)c2c(NC(=O)C3CCC3)ncnc21` [compound 391], with 5.30 to 5.70; and `CCn1nc([S+]([O-])c2cccc(Br)c2)c2c(N)ncnc21` (centres unmarked) [compound 392], with under 4.82; and `CC(C)(C)n1nc(-c2ccc(Cl)cc2)c2c(NC(=O)C3CCOC3)ncnc21` (centres unmarked) [compound 393], with 5.00 to 5.30.
To `CC(C)C(=O)C(=O)Nc1ncnc2c1c(-c1ccc(Cl)cc1)nn2C(C)(C)C` [compound 394] belongs under 4.82; to `CC(C)(C)n1nc(-c2ccc(Cl)cc2)c2c(NC(=O)C3CC3)ncnc21` [compound 396], 5.00 to 5.30; to `CC(C)(C)n1nc(-c2ccc(Cl)cc2)c2c(NC(=O)N3CCCC3)ncnc21` [compound 398], under 4.82.
To `CC(C)(C)n1cc(-c2ccc(Cl)cc2)c2c(NC(=O)N3CCCC3)ncnc21` [compound 399] belongs under 4.82; to `CC(C)(C)n1nc(Oc2cccc(Cl)c2)c2c(NC(=O)N3CCCC3)ncnc21` [compound 400], under 4.82.
For `CCn1c(C)c(-c2ccc(Cl)cc2)c2c(N)ncnc21` [compound 401], the pEC50 is 5.30 to 5.70.
To `CC(C)N1CC(n2nc(Oc3cccc(Cl)c3)c3c(N)ncnc32)C1` [compound 402] belongs under 4.82.
To `CCOC(=O)N1CC(n2nc(Oc3cccc(Cl)c3)c3c(N)ncnc32)C1` [compound 403] belongs under 4.82; to `CC(=O)N1CC(n2nc([S+]([O-])c3ccccc3)c3c(N)ncnc32)C1` (centres unmarked) [compound 404], under 4.82; to `CCOC(=O)N1CC(n2nc([S+]([O-])c3ccccc3)c3c(N)ncnc32)C1` (centres unmarked) [compound 405], under 4.82.
Then `Nc1ncnc2c1c(Oc1cccc(Cl)c1)nn2C1CNC1` [compound 414], with under 4.82; and `Nc1ncnc2c1c(Sc1cccc(Cl)c1)nn2C1CNC1` [compound 415], with under 4.82; and `Nc1ncnc2c1c(Sc1ccccc1)nn2C1CNC1` [compound 416], with under 4.82.
As for `Nc1ncnc2c1c(Oc1ccccc1)nn2C1CCNCC1` [compound 417], the pEC50 was under 4.82.
Then `Nc1ncnc2c1c([S+]([O-])c1cccc(Cl)c1)nn2C1CNC1` (centres unmarked) [compound 418], with under 4.82; and `CCNC(=O)N1CC(n2nc([S+]([O-])c3ccccc3)c3c(N)ncnc32)C1` (centres unmarked) [compound 419], with under 4.82.
Then `CC(=O)N1CCC(n2nc(Oc3ccccc3)c3c(N)ncnc32)CC1` [compound 420], with under 4.82; and `CC(C)(C)n1nc(Br)c2c(NC(=O)c3ccccc3)ncnc21` [compound 421], with 5.30 to 5.70.
As for `CC(C)(C)C(=O)Nc1ncnc2c1c(Br)nn2C(C)(C)C` [compound 422], the pEC50 was 5.30 to 5.70.
Consider `CC(C)C(=O)Nc1ncnc2c1c(Br)nn2C(C)(C)C` [compound 423], for which the pEC50 was over 5.70.
To `CCNC(=O)Nc1ncnc2c1c(Cc1cccc(Cl)c1)nn2C1CN(C(=O)NCC)C1` [compound 424] belongs under 4.82.
To `CC(C)(C)n1nc(Br)c2c(N(C(=O)c3ccccc3)C(=O)c3ccccc3)ncnc21` [compound 425] belongs 5.30 to 5.70; to `CC(C)C(=O)N(C(=O)C(C)C)c1ncnc2c1c(Br)nn2C(C)(C)C` [compound 426], 5.00 to 5.30.
